From patent US5686424A, “2-oxoethyl derivatives as immunosuppressants” (Miles Inc., priority 1995, dated 1997) come the findings set out here.

Structures can show the parent of a compound that is named as a salt.

One assay addresses FKBP (Homo sapiens, UniProt P62942). In words: PPIase Inhibition Assay. Particulars: concentration of inhibitor required for 50% inhibition of enzyme activity; FKBP, substrate Succinyl-Ala-Phe-Pro-Phe-para-nitroanilide; TABLE I. The format is biochemical. An outline of the steps: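 Rates from p-nitroaniline release at 390 nm over 90 sec, fitted first-order, were converted to % activity remaining relative to uncatalyzed and uninhibited rates, with IC50 from linear regression of V-/V+ against inhibitor level. FKBP acted on Suc-Ala-Phe-Pro-Phe-pNA with excess chymotrypsin, HEPES pH 7.8, cold buffer.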

For the next assay, the system named is human T-cells. In words: Suppression of Human T-Cell Proliferation Assay (PHA-stimulated, [3H]-thymidine incorporation). The settings on record: concentration inhibiting [3H]-thymidine incorporation of PHA-stimulated T-cells by 50%, 72 hours; TABLE 2; read-out: IC50. In kind it is cell-based. An outline of the steps: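 Read-out is scintillation counting of [3H]-thymidine pulsed for the last 6 h of a 72 h, 37° C culture. Human T-cells, isolated from LeukoPaks by Lymphoprep and sheep-erythrocyte rosetting, were PHA-M activated (40 μg/ml stock) with compound dilutions added in duplicate wells.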

The subject of assay [1] is graft versus host response. In words: Mouse Lymph Node Assay for Modulation of Graft versus Host Response. The settings on record: mice, 100 mg/kg per day intraperitoneal, after 7 days; popliteal lymph nodes, C57 B1/6-injected limb divided by BDF1-injected limb. The format is in vivo. An excerpt:
4) Graft versus Host Assay
Transfer of parental strain T-cells (the graft) into F1 hybrid animals (the host) major different with respect to gene products of the histocompatibility complex (MHC) causes a GVHR. This reaction results from recognition of host allogeneic MHC gene products by specific clones of graft T-cells.
When given systemically in sufficient numbers, the graft T-cells cause a progressive, generally fatal, wasting syndrome. A local, nonfatal GVHR, marked by enlargement of the draining popliteal lymph nodes, ensues when graft T-cells are administered via the footpad as described by Ford et al., 1970, Transplantation 10:258. The GVHR is regarded as a correlate of allograft rejections where specific T-cells of either host or allograft origin are activated after recognition of allogeneic MHC gene products, leading to an immune inflammatory response which ultimately results in the destruction (rejection) of the allograft.
Mouse Lymph Node Assay for Modulation of Graft versus Host Response […]
After 7 days, the draining popliteal lymph nodes from the hind limbs were dissected out and weighed. The magnitude of the GVHR was expressed as the ratio of the mean weight of lymph nodes from the limb injected with semi-allogeneic C57 B1/6 cells divided by the mean weight of lymph nodes from the limb injected with syngeneic BDF1 cells.

The subject of a further assay is NF-AT. In words: NF-AT Inhibition Assay Directed β-Galactosidase Expression in FGL-5 cells. The format is cell-based. The settings on record: 50% inhibition of NF-AT directed β-galactosidase activity in FGL-5 cells stimulated with phorbol dibutyrate and ionomycin; TABLE 3. An outline of the steps:
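FGL-5 Jurkat cells (3 million cells/ml) carry NF-AT-site-driven lacZ. They were stimulated with phorbol dibutyrate plus ionomycin and incubated with compound 16-18 h at 37 °C, in duplicate wells with matched ethanol or DMSO vehicle controls. β-Galactosidase was read as fluorescence from 4-methylumbelliferyl-β-D-galactoside cleavage, giving percent inhibition.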

FKBP, sequence (P62942 whole entry): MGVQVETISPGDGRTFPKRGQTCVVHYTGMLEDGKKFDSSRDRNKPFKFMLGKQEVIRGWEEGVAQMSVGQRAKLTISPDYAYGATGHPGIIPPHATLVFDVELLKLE

By IC50 is commonly meant the concentration that gives 50% inhibition. For `CC[C@H](C)[C@H](NC(=O)[C@@H]1CCCN1CC(=O)C12CC3CC(CC(C3)C1)C2)C(=O)NCc1ccccc1` [Example 24, L-Isoleucine, N-[1-(2-Adamantan-1-yl-2-Oxoethyl)-L-Prolyl] Benzylamide], the IC50 at FKBP turned out to be 0.06 µM; with human T-cells, 12 µM. Also, in assay [1], the “Lymph Node Weight Ratio” value came out at 1.2.
For `COc1cc(C(=O)CN2CCC[C@H]2C(=O)NCC2CCCCC2)cc(OC)c1OC` [Example 141, L-Proline, 1-[2-(3,4,5-Trimethoxylphenyl)-2-Oxoethyl] Cyclohexylmethylamide], the IC50 is more than 5 µM against FKBP, 7 µM with human T-cells and more than 33 µM in the assay on NF-AT.
The matching figures for `COc1cc(C(=O)CN2CCC[C@H]2C(=O)NC(c2ccccc2)c2ccccc2)cc(OC)c1OC` [Example 142, L-Proline, 1-[2-(3,4,5-Trimethoxyphenyl)-2-Oxoethyl] Diphenylmethylamide Hydrochloride]: more than 5 µM, 12 µM and more than 33 µM.
Turning to `COc1cc(C(=O)CN2CCC[C@H]2C(=O)NC(C)(C)C)cc(OC)c1OC` [Example 143, L-Proline, 1-[2-(3,4,5-Trimethoxyphenyl)-2-Oxoethyl] tert-Butylamide Hydrochloride], the IC50 is more than 5 µM at FKBP, 3 µM in the assay on human T-cells and more than 33 µM with NF-AT.
Take `COc1cc(C(=O)CN2CCC[C@H]2C(=O)NC(Cc2ccccc2)c2ccccc2)cc(OC)c1OC` (stereo partly drawn) [Example 144, L-Proline, 1-[2-(3,4,5-Trimethoxyphenyl)-2-Oxoethyl] 1,2-DiphenylethylamideHydrochloride]: the IC50 on FKBP was more than 5 µM; in the assay on human T-cells, 19 µM; in the assay on NF-AT, more than 33 µM.
In the case of `COc1cc(C(=O)CN2CCC[C@H]2C(=O)NC2CCCCC2)cc(OC)c1OC` [Example 145, L-Proline, 1-[2-(3,4,5-Trimethoxyphenyl)-2-Oxoethyl] Cyclohexyl amide Hydrochloride], the values for the IC50 at FKBP, with human T-cells and in the assay on NF-AT were more than 5 µM, 4 µM and more than 33 µM, respectively.
With `COc1cc(C(=O)CN2CCCC[C@H]2C(=O)NCc2ccccc2)cc(OC)c1OC` [Example 146, L-Homoproline, 1-[2-(3,4,5-Trimethoxyphenyl)-2-Oxoethyl] Benzylamide Hydrochloride], the IC50 at FKBP is more than 5 µM; with human T-cells, more than 15 µM; with NF-AT, more than 15 µM.
As to `COc1cc(C(=O)CN2CCCC[C@H]2C(=O)NCC23CC4CC(CC(C4)C2)C3)cc(OC)c1OC` [Example 147, L-Homoproline, 1-[2-(3,4,5-Trimethoxyphenyl)-2-Oxoethyl] Adamant-1-ylmethylamide Hydrochloride], the IC50 against FKBP was more than 5 µM; in the assay with human T-cells, 8 µM; with NF-AT it was more than 15 µM.
With `COc1cc(C(=O)CN2CCCC[C@H]2C(=O)NCC2CCCO2)cc(OC)c1OC` (stereo partly drawn) [Example 148, L-Homoproline, 1-[2-(3,4,5-Trimethoxyphenyl)-2-Oxoethyl] tetrahydrofurfurylamide], the 50% inhibitory concentration (IC50) was more than 5 µM against FKBP, more than 15 µM in the assay on human T-cells and more than 15 µM in the assay on NF-AT.
As for `COc1cc(C(=O)CN2CCCC[C@H]2C(=O)NCCc2ccc(S(N)(=O)=O)cc2)cc(OC)c1OC` [Example 149, L-Homoproline, 1-[2-(3,4,5-Trimethoxyphenyl)-2-Oxoethyl] 2-(4-Sulfamoylphenyl)ethylamide], the IC50 against FKBP was more than 5 µM; in the assay on human T-cells, more than 15 µM; in the assay on NF-AT, more than 15 µM.
In the case of `COc1cc(C(=O)CN2CCCC[C@H]2C(=O)N[C@@H](C)c2ccccc2)cc(OC)c1OC` [Example 150, L-Homoproline, 1-[2-(3,4,5-Trimethoxyphenyl)-2-Oxoethyl] (S)-α-methylbenzylamide Hydrochloride], the IC50 against FKBP is more than 5 µM; in the assay with human T-cells, more than 15 µM; in the assay on NF-AT, more than 15 µM.
Regarding `COc1cc(C(=O)CN2CCCC[C@H]2C(=O)N[C@H](/C=C/c2ccccc2)CC(C)C)cc(OC)c1OC` [Example 151, L-Homoproline, 1-[2-(3,4,5-Trimethoxyphenyl)-2-Oxoethyl] (1-(S)-[2'-(S)-methylpropyl]-3-phenylprop-2-E-enyl)-amide], the IC50 was more than 5 µM against FKBP, 4 µM in the assay on human T-cells and more than 15 µM in the assay with NF-AT.
As for `COc1cc(C(=O)CN2CCCC[C@H]2C(=O)N[C@@H](CCc2ccccc2)CC(C)C)cc(OC)c1OC` [Example 152, L-Homoproline, 1-[2-(3,4,5-Trimethoxyphenyl)-2-Oxoethyl] (1-(S)-[2'-(S)-methylpropyl]-3-phenylpropyl)-amide], the IC50 on FKBP was more than 5 µM; in the assay on human T-cells, 8 µM; with NF-AT it was more than 15 µM.
Take `COc1cc(C(=O)CN2CCC[C@H]2C(=O)NCCc2ccc(NC(C)=O)cc2)cc(OC)c1OC` [Example 154, L-Proline, 1-[2-(3,4,5-Trimethoxyphenyl)-2-Oxoethyl] 2-(4-(N-Acetyl)aminophenyl)ethylamide]: the results for the IC50 against FKBP, in the assay with human T-cells and with NF-AT were more than 5 µM, 13 µM and more than 15 µM, respectively.
The corresponding values for `COc1cc(C(=O)CN2CCC[C@H]2C(=O)NCCc2ccc(NC(=O)c3ccccc3)cc2)cc(OC)c1OC` [Example 155, L-Proline, 1-[2-(3,4,5-Trimethoxyphenyl)-2-Oxoethyl] 2-(4-(N-Benzoyl)aminophenyl)ethylamide] are more than 5 µM, 9 µM and more than 15 µM.
On to `C=CCOC(=O)Nc1ccc(CCNC(=O)[C@@H]2CCCN2CC(=O)c2cc(OC)c(OC)c(OC)c2)cc1` [Example 156, L-Proline, 1-[2-(3,4,5-Trimethoxyphenyl)-2-Oxoethyl] 2-(4-(N-carboalloxy)aminophenyl)ethylamide], for which the IC50 against FKBP is more than 5 µM; with human T-cells, 6 µM; in the assay on NF-AT, more than 15 µM.
`COc1cc(C(=O)CN2CCC[C@H]2C(=O)NCCc2ccc(NC(=O)OCc3ccccc3)cc2)cc(OC)c1OC` [Example 157, L-Proline, 1-[2-(3,4,5-Trimethoxyphenyl)-2-Oxoethyl] 2-(4-(N-Carbobenzyloxy)aminophenyl)ethylamide]: the IC50 was more than 5 µM at FKBP, 5 µM in the assay with human T-cells and more than 15 µM in the assay with NF-AT.
With `C=CCOC(=O)Nc1ccc(CCCOC(=O)[C@@H]2CCCCN2CC(=O)c2cc(OC)c(OC)c(OC)c2)cc1` [Example 159, L-Homoproline, 1-[2-(3,4,5-Trimethoxyphenyl)-2-Oxoethyl] 3-(4-(N-Carboallyloxy)aminophenyl)propyl Ester Hydrochloride], the IC50 was more than 5 µM against FKBP, 10 µM with human T-cells and 3 µM with NF-AT.
With `C=CCOC(=O)Nc1ccc(CCCOC(=O)[C@@H]2CCCN2CC(=O)C23CC4CC(CC(C4)C2)C3)cc1` [Example 160, L-Proline, 1-[2-Adamantan-1-yl-2-Oxoethyl] 3-(4-(N-Carboallyloxy)aminophenyl)propyl Ester Hydrochloride], the IC50 at FKBP was more than 5 µM; in the assay with human T-cells, more than 15 µM; in the assay with NF-AT, more than 15 µM.
As for `C=CCOC(=O)Nc1ccc(CCCOC(=O)[C@@H]2CCCCN2CC(=O)C23CC4CC(CC(C4)C2)C3)cc1` [Example 161, L-Homoproline, 1-[2-Adamant-1-yl-2-Oxoethyl] 3-(4-(N-Carboallyloxy)aminophenyl)propyl Ester Hydrochloride], the IC50 at FKBP is more than 5 µM; in the assay with human T-cells it was 9 µM; in the assay on NF-AT, more than 15 µM.
